# Reference: patent US20260184707A1, “PHARMACEUTICAL COMPOUNDS FOR THE TREATMENT OF COMPLEMENT MEDIATED DISORDERS” (ALEXION PHARMACEUTICALS, INC., priority 2022, published 2026)
# Target: T1, Human complement C1s enzyme (Homo sapiens, UniProt P09871)
# T1 construct: purified from human serum, Complement Technology, Inc; purchased Complement Technology, Inc; host or cells: human serum (plasma-derived native protein)
# T1 sequence (P09871 438-688 limits assumed): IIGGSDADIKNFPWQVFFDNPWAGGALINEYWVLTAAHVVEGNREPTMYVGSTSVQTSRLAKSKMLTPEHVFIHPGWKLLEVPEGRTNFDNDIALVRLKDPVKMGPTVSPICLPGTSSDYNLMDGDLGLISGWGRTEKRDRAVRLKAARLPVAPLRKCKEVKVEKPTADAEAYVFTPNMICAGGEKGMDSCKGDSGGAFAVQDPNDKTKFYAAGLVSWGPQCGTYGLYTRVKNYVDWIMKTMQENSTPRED
# T1 sequence (P09871 16-437 partner limits assumed): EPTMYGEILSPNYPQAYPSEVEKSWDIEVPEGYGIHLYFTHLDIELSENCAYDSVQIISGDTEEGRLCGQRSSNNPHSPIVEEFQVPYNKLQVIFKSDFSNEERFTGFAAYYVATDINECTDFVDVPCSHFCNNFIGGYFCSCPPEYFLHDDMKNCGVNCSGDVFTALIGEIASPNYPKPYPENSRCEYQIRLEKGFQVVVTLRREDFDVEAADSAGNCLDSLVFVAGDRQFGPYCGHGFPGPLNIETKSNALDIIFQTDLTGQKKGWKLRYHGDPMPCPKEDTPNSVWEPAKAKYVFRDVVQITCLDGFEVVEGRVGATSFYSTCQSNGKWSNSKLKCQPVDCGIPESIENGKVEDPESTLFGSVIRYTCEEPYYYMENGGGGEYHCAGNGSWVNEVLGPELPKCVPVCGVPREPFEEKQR
# Experiment: Human C1s enzyme assay
# Type: biochemical
# Conditions: human complement C1s enzyme 1.16 nM, substrate Z-L-Lys-SBzl, A405; read-out: IC50 (Stars)
# Method in brief: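 Serum-purified human C1s (1.16 nM final) preincubated 5 min at room temperature with compound in 50 mM Tris, 1 M NaCl, pH 7.5. Z-L-Lys-SBzl and DTNB added at 100 μM each; A405 recorded every 30 s. IC50 from nonlinear regression of reaction rates versus compound concentration.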
row,SMILES,IC50 [nM]
1,"N#Cc1c(NCCCc2ccccc2)ccc(-c2ccccc2)c1CC(=O)NCc1cc2cnccc2[nH]1 [Compound 302, N-((1H-pyrrolo[3,2-c]pyridine-2-yl)methyl)-2-(3-cyano-4-((3-phenylpropyl)amino)-[1,1′-biphenyl]-2-yl)acetamide]",< 100
2,"O=C(Cn1c(-c2ccccc2)ncc(NCCCc2ccccc2)c1=O)N[C@H](CO)c1cc2cnccc2[nH]1 [Compound 15, (S)-N-(2-hydroxy-1-(1H-pyr-rolo[3,2-c]pyridin-2-yl)ethyl)-2-(6-oxo-2-phenyl-5-((3-phen-ylpropyl)amino)pyrimidin-1(6H)-yl)acetamide]",> 1000
3,"C[C@@H](Nc1ncc(C2=CCOCC2)n(CC(=O)NCc2cc3cnccc3[nH]2)c1=O)c1ccc2oc3ccccc3c2c1 [Compound 426, (R)—N-((1H-Pyrrolo[3,2-c]pyridine-2-yl)methyl)-2-(3-((1-(dibenzo[b,d]furan-2-yl)ethyl)amino)-6-(3,6-dihydro-2H-pyran-4-yl)-2-oxopyrazin-1(2H)-yl)acetamide]",< 100
4,"C[C@@H](Nc1cnc(N2CCOCC2)n(CC(=O)NCc2cc3cnccc3[nH]2)c1=O)c1ccc(-c2ccccc2F)cc1 [Compound 421, (R)-N-((1H-pyrrolo[3,2-c]pyridin-2-yl)methyl)-2-(5-((1-(2′-fluoro-[1,1′-biphenyl]-4-yl)-ethyl)amino)-2-morpholino-6-oxopyrimidin-1(6H)-yl)acet-amide]",< 100
5,"O=C(Cn1c(-c2ccccc2)ncc(NC(=O)c2ccc(C(=O)c3ccccc3)cc2)c1=O)NCc1cc2cnccc2[nH]1 [Compound 73, N-(1-(2-(((1H-pyrrolo[3,2-c]pyridin-2-yl)methyl)amino)-2-oxoethyl)-6-oxo-2-phenyl-1,6-dihydropyrimidin-5-yl)-4-benzoylbenzamide]",< 100
6,"CCOP(=O)(COc1ccc(-c2ncc(NCCCc3ccccc3)c(=O)n2CC(=O)NCc2cc3cnccc3[nH]2)cc1)OCC [Compound 89, diethyl ((4-(1-(2-(((1H-pyrrolo[3,2-c]pyridine-2-yl)methyl)amino)-2-oxoethyl)-6-oxo-5-((3-phenylpropyl)amino)-1,6-dihydropyrimidin-2-yl)phenoxy)methyl)phosphonate]",< 100
7,"O=C(Cn1c(-c2ccccc2)ncc(NCc2ccc3oc4ccccc4c3c2)c1=O)NCc1cc2c(s1)CNCC2 [Compound 143, 2-(5-((dibenzo[b,d]furan-2-yl-methyl)amino)-6-oxo-2-phen-ylpyrimidin-1(6H)-yl)-N-((4,5,6,7-tetrahydrothieno [2,3-c]pyridin-2-yl)methyl)-acetamide]",< 100
8,"CS(=O)(=NC#N)c1ccc(CCCNc2cnc(-c3ccccc3)n(CC(=O)NCc3cc4cnccc4[nH]3)c2=O)cc1 (centres unmarked) [Compound 84, N-((1H-pyrrolo[3,2-c]pyridine-2-yl)methyl)-2-(5-((3-(4-(N-cyano-S-methylsulfonimidoyl)phenyl)propyl)amino)-6-oxo-2-phenylpyrimidin-1(6H)-yl)acetamide]",< 100

# The next lines start with the values.
row,IC50 [nM],SMILES
1,> 1000,"C[C@@H](Nc1cnc(N2CC3(CCC3)C2)n(CC(=O)NCc2cc3cnccc3[nH]2)c1=O)c1ccc2oc3ccccc3c2c1 [Compound 373, (R)-N-((1H-pyrrolo[3,2-c]pyridin-2-yl)methyl)-2-(5-((1-(dibenzo[b,d]furan-2-yl)ethyl)-amino)-6-oxo-2-(2-azaspiro [3.3]heptan-2-yl)pyrimidin-1(6H)-yl)acetamide]"
2,100 to 1000,"O=C(Cn1c(-c2ccccc2)ncc(N2CC3CCC2C3)c1=O)NCc1cc2cnccc2[nH]1 (centres unmarked) [Compound 65, N-((1H-pyrrolo[3,2-c]pyridin-2-yl)methyl)-2-(5-(2-azabicyclo [2.2.1]heptan-2-yl)-6-oxo-2-phenylpyrimidin-1(6H)-yl)-acetamide]"
3,> 1000,"Cc1ncc(N[C@H](C)c2ccc3oc4ccccc4c3c2)c(=O)n1C(C)C(=O)NCc1cc2cnccc2[nH]1 (stereo partly drawn) [Compound 404, N-((1H-pyrrolo[3,2-c]pyridin-2-yl)methyl)-2-(5-(((R)-1-(dibenzo[b,d]furan-2-yl)ethyl)-amino)-2-methyl-6-oxopyrimi-din-1(6H)-yl)propanamide]"
4,< 100,"C[C@@H](Nc1ncc(-c2ccccn2)n(CC(=O)NCc2cc3cnccc3[nH]2)c1=O)c1ccc(-c2ccccc2F)cc1 [Compound 449, (R)-N-((1H-pyrrolo[3,2-c]pyridin-2-yl)methyl)-2-(3-((1-(2′-fluoro-[1,1′-biphenyl]-4-yl)ethyl)amino)-2-oxo-6-(pyridin-2-yl)pyrazin-1(2H)-yl)acetamide]"
5,< 100,"O=C(Cn1c(-c2ccc(N3CCCC3=O)cc2)ncc(NCc2ccc3oc4ccccc4c3c2)c1=O)NCc1cc2cnccc2[nH]1 [Compound 153, N-((1H-pyrrolo[3,2-c]pyridin-2-yl)methyl)-2-(5-((dibenzo [b,d]furan-2-ylmethyl)amino)-6-oxo-2-(4-(2-oxopyrrolidin-1-yl)phenyl)pyrimidin-1(6H)-yl)acetamide]"
6,< 100,"O=C(Cn1c(-c2ccccc2)ncc(NC(=O)c2ccc(-c3ncc[nH]3)cc2)c1=O)NCc1cc2cnccc2[nH]1 [Compound 175, N-(1-(2-(((1H-pyrrolo[3,2-c]pyridin-2-yl)methyl)amino)-2-oxoethyl)-6-oxo-2-phenyl-1,6-dihydropyrimidin-5-yl)-4-(1H-imidazol-2-yl)benzamide]"
7,100 to 1000,"C[C@@H](Nc1cnc(N2CCCC(C(F)(F)F)C2)n(CC(=O)NCc2cc3cnccc3[nH]2)c1=O)c1ccc2oc3ccccc3c2c1 (stereo partly drawn) [Compound 402, N-((1H-pyrrolo[3,2-c]pyridin-2-yl)methyl)-2-(5-(((R)-1-(dibenzo[b,d]furan-2-yl)ethyl)-amino)-6-oxo-2-(3-(trifluoro-methyl)piperidin-1-yl)pyrimi-din-1(6H)-yl)acetamide]"
8,< 100,"O=C(Cn1c(-c2ccc(OCc3ccccn3)cc2)ncc(NC(=O)c2ccc(-c3ccccc3)cc2)c1=O)NCc1cc2cnccc2[nH]1 [Compound 225, N-[6-Oxo-1-[2-oxo-2-(1H-pyrrolo[3,2-c]pyridine-2-ylmethylamino)ethyl]-2-[4-(2-pyridylmethoxy)phenyl]pyrimidin-5-yl]-4-phenyl-benzamide]"
9,> 1000,"Cc1ncc(N[C@H](C)c2ccc3oc4ccccc4c3c2)c(=O)n1CC(=O)NCc1cc2cnccc2[nH]1 [Compound 378, (R)-N-((1H-pyrrolo[3,2-c]pyridin-2-yl)methyl)-2-(5-((1-(dibenzo[b,d]furan-2-yl)ethyl)-amino)-2-methyl-6-oxopyrimi-din-1(6H)-yl)acetamide]"
10,< 100,"COc1ccc(-c2ncc(NCc3ccc4oc5ccccc5c4c3)c(=O)n2CC(=O)NCc2cc3cnccc3[nH]2)cc1 [Compound 119, N-((1H-pyrrolo[3,2-c]pyridin-2-yl)methyl)-2-(5-((dibenzo [b,d]furan-2-ylmethyl)amino)-2-(4-methoxyphenyl)-6-oxo-pyrimidin-1(6H)-yl)acetamide]"
11,< 100,"CC1(c2ccc(CCCNc3cnc(-c4ccccc4)n(CC(=O)NCc4cc5cnccc5[nH]4)c3=O)cc2)COC1 [Compound 180, N-((1H-pyrrolo[3,2-c]pyridine-2-yl)methyl)-2-(5-((3-(4-(3-methyloxetan-3-yl)phenyl)propyl)amino)-6-oxo-2-phenylpyrimidin-1(6H)-yl)acetamide]"
12,< 100,"O=C(Cn1c(-c2ccccc2)ncc(Nc2ccc(Oc3ccccc3)cc2)c1=O)NCc1cc2cnccc2[nH]1 [Compound 228, N-((1H-pyrrolo[3,2-c]pyridin-2-yl)methyl)-2-(6-oxo-5-((4-phenoxyphenyl)amino)-2-phenylpyrimidin-1(6H)-yl)-acetamide]"
